From US9187556B2, “SEMA5B peptides and vaccines including the same” (OncoTherapy Science, Inc., priority 2011, dated 2015)

Legend:
peptide-pulsed T2 cells [1] = test: IFN-gamma ELISPOT assay on CTLs induced with peptide-pulsed DCs; assay type: cell-based, human; conditions: CTLs from HLA-A*0201 positive donor, compared to control wells
Text: Monocyte-derived dendritic cells (DCs) were used as antigen-presenting cells to induce cytotoxic T lymphocyte (CTL) responses against peptides presented on human leukocyte antigen (HLA). DCs were generated in vitro as described elsewhere (Nakahara S et al., Cancer Res 2003 Jul. 15, 63(14): 4112-8). Specifically, peripheral blood mononuclear cells isolated from a normal volunteer (HLA-A*0201 positive) by Ficoll-Paque plus (Pharmacia) solution were separated by adherence to a plastic tissue culture dish (Becton Dickinson) so as to enrich them as the monocyte fraction. The monocyte-enriched population was cultured in the presence of 1000 U/ml of granulocyte-macrophage colony-stimulating factor (R&D System) and 1000 U/ml of interleukin (IL)-4 (R&D System) in AIM-V Medium (Invitrogen) containing 2% heat-inactivated autologous serum (AS). After 7 days of culture, the cytokine-induced DCs were pulsed with 20 micro g/ml of each of the synthesized peptides in the presence of 3 micro g/ml of beta 2-microglobulin for 3 hr at 37 degree C. in AIM-V Medium. The generated cells appeared to express DC-associated molecules, such as CD80, CD83, CD86 and HLA class II, on their cell surfaces (data not shown). These peptide-pulsed DCs were then inactivated by X ray-irradiated (20 Gy) and mixed at a 1:20 ratio with autologous CD8+ T cells, obtained by positive selection with CD8 Positive Isolation Kit (Dynal). These cultures were set up in 48-well plates (Corning); each well contained 1.5×10^4 peptide-pulsed DCs, 3×10^5 CD8+ T cells and 10 ng/ml of IL-7 (R&D System) in 0.5 ml of AIM-V/2% AS medium. Three days later, these cultures were supplemented with IL-2 (CHIRON) to a final concentration of 20 IU/ml. On day 7 and 14, the T cells were further stimulated with the autologous peptide-pulsed DCs. The DCs were prepared each time by the same way described above. CTLs were tested against peptide-pulsed T2 cells after the 3rd round of peptide stimulation on day 21 (Tanaka H et al., Br J Cancer 2001 Jan. 5, 84(1): 94-9; Umano Y et al., Br J Cancer 2001 Apr. 20, 84(8): 1052-7; Uchida N et al., Clin Cancer Res 2004 December 15, 10(24): 8577-86; Suda T et al., Cancer Sci 2006 May, 97(5): 411-9; Watanabe T et al., Cancer Sci 2005 August, 96(8): 498-506).
(§1) To examine specific CTL activity, interferon(IFN)-gamma enzyme-linked immunospot (ELISPOT) assay and IFN-gamma enzyme-linked immunosorbent assay (ELISA) were performed. Peptide-pulsed T2 (1×10^4/well) was prepared as stimulator cells. Cultured cells in 48-well plate, CTL lines and CTL clones were used as responder cells. IFN-gamma ELISPOT assay and IFN-gamma ELISA assay were performed under manufacture procedure.

peptide-pulsed T2 cells [2] = test: IFN-gamma ELISA of expanded CTL lines; assay type: cell-based, human; conditions: target cells pulsed with corresponding peptide vs without peptide pulse
Experimental: CTLs were expanded in culture using the method similar to the one described by Riddell et al. (Walter E A et al., N Engl J Med 1995 Oct. 19, 333(16): 1038-44; Riddell S R et al., Nat Med 1996 February, 2(2): 216-23). A total of 5×10^4 CTLs were suspended in 25 ml of AIM-V/5% AS medium with 2 kinds of human B-lymphoblastoid cell lines, inactivated by Mitomycin C, in the presence of 40 ng/ml of anti-CD3 monoclonal antibody (Pharmingen). One day after initiating the cultures, 120 IU/ml of IL-2 were added to the cultures. The cultures were fed with fresh AIM-V/5% AS medium containing 30 IU/ml of IL-2 on days 5, 8 and 11 (Tanaka H et al., Br J Cancer 2001 Jan. 5, 84(1): 94-9; Umano Y et al., Br J Cancer 2001 Apr. 20, 84(8): 1052-7; Uchida N et al., Clin Cancer Res 2004 Dec. 15, 10(24): 8577-86; Suda T et al., Cancer Sci 2006 May, 97(5): 411-9; Watanabe T et al., Cancer Sci 2005 August, 96(8): 498-506).
as §1

peptide-pulsed T2 cells [3] = test: IFN-gamma ELISA of CTL clones established by limiting dilution; assay type: cell-based, human; conditions: target cells pulsed with each peptide
Experimental: The dilutions were made to have 0.3, 1, and 3 CTLs/well in 96 round-bottomed micro titer plate (Nalge Nunc International). CTLs were cultured with 1×10^4 cells/well of 2 kinds of human B-lymphoblastoid cell lines, 30 ng/ml of anti-CD3 antibody, and 125 U/ml of IL-2 in a total of 150 micro 1/well of AIM-VMedium containing 5% AS. 50 micro 1/well of IL-2 were added to the medium 10 days later so to reach a final concentration of 125 U/ml IL-2. CTL activity was tested on the 14th day, and CTL clones were expanded using the same method as described above (Uchida N et al., Clin Cancer Res 2004 Dec. 15, 10(24): 8577-86; Suda T et al., Cancer Sci 2006 May, 97(5): 411-9; Watanabe T et al., Cancer Sci 2005 August, 96(8): 498-506).
as §1

[4] = tested on: COS7 cells transfected with SEMA5B and HLA-A*0201; test: Specific CTL activity against target cells expressing SEMA5B and HLA-A*0201; assay type: cell-based, African green monkey
Experimental: as §1
The cDNA encoding an open reading frame of target genes or HLA-A*0201 was amplified by PCR. The PCR-amplified product was cloned into expression vector. The plasmids were transfected into COS7, which is HLA-A*0201-null cell line, using lipofectamine 2000 (Invitrogen) according to the manufacturer's recommended procedures. After 2 days from transfection, the transfected cells were harvested with versene (Invitrogen) and used as the stimulator cells (5×10^4 cells/well) for CTL activity assay.

Row | Sequence | Peptide-specific CTL activity (IFN-gamma production) (peptide-pulsed T2 cells [1]) | IFN-gamma production of CTL lines (peptide-pulsed T2 cells [2]) | IFN-gamma production of CTL clones (peptide-pulsed T2 cells [3]) | CTL activity of CTL line against COS7 cells expressing both SEMA5B and HLA-A*0201 ([4]; COS7 transfected with both full length SEMA5B and HLA-A*0201) | CTL activity of CTL line against control COS7 cells ([4]; COS7 transfected with either full length SEMA5B or HLA-A*0201)
1 | GLLTLAVYL [SEQ ID NO: 7, 9 mer peptide derived from SEMA5B, start position 1049] | potent IFN-gamma production |  |  |  | 
2 | LIYGVFTTNV [SEQ ID NO: 34, 10 mer peptide derived from SEMA5B, start position 370] | potent IFN-gamma production | potent IFN-gamma production | Potent IFN-gamma production |  | 
3 | LLLPSLTLLV [SEQ ID NO: 27, 10 mer peptide derived from SEMA5B, start position 69] | potent IFN-gamma production | potent IFN-gamma production | Potent IFN-gamma production | potent CTL activity | no significant specific CTL activity was detected
4 | LLPSLTLLV [SEQ ID NO: 5, 9 mer peptide derived from SEMA5B, start position 70] | potent IFN-gamma production | potent IFN-gamma production | Potent IFN-gamma production |  | 
5 | MVLAGPLAV [SEQ ID NO: 8, 9 mer peptide derived from SEMA5B, start position 59; typical negative case] | not shown specific IFN-gamma production |  |  |  | 
